For this experiment, the system named is P388 leukemia ip, CD2F1 mice, survival T/C. Description: NCI In Vivo Anticancer Drug Screen. Data for tumor model P388 Leukemia (intraperitoneal) in CD2F1 (CDF1) mice. The conditions noted are these: endpoint: median survival time, higher = longer survival. The essentials: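 Mice carrying the transplanted tumor received test compound or vehicle. Survival was recorded in each group, and the value is the treated-group measurement divided by that of the vehicle-treated control group.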

The mark [1] stands for this setting: dose: 50.0 mg/kg/injection, schedule: Q01DX005 (ip), vehicle: Klucel (hydroxypropylcellulose) (HPC).
Where [2] appears, read: dose: 100.0 mg/kg/injection, schedule: Q01DX005 (ip), vehicle: Klucel (hydroxypropylcellulose) (HPC).
[3] abbreviates: dose: 25.0 mg/kg/injection, schedule: Q01DX001 (ip), vehicle: Klucel (hydroxypropylcellulose) (HPC).
The mark [4] stands for this setting: dose: 50.0 mg/kg/injection, schedule: Q01DX001 (ip), vehicle: Klucel (hydroxypropylcellulose) (HPC).
Where [5] appears, read: dose: 50.0 mg/kg/injection, schedule: Q01DX009 (ip), vehicle: Klucel (hydroxypropylcellulose) (HPC).
Where [6] appears, read: dose: 100.0 mg/kg/injection, schedule: Q01DX009 (ip), vehicle: Klucel (hydroxypropylcellulose) (HPC).
The mark [7] stands for this setting: dose: 200.0 mg/kg/injection, schedule: Q01DX009 (ip), vehicle: Klucel (hydroxypropylcellulose) (HPC).
Setting [8] is: dose: 200.0 mg/kg/injection, schedule: Q01DX005 (ip), vehicle: Klucel (hydroxypropylcellulose) (HPC).
[9] abbreviates: dose: 50.0 mg/kg/injection, schedule: Q01DX009 (ip), vehicle: saline with Tween-80.
[10] abbreviates: dose: 100.0 mg/kg/injection, schedule: Q01DX009 (ip), vehicle: saline with Tween-80.
[11] abbreviates: dose: 200.0 mg/kg/injection, schedule: Q01DX009 (ip), vehicle: saline with Tween-80.

Where “and” joins values, the source holds several entries; their conditions need not be identical. Equal values may be shown once. Inconclusive results and toxic doses are left out.

`C1CCC2C(C1)CCC1COCN12` (centres undefined): the T/C was 98 % of control (dose: 12.5 mg/kg/injection, schedule: Q01DX005 (ip), vehicle: Klucel (hydroxypropylcellulose) (HPC)); 108 % of control (dose: 12.5 mg/kg/injection, schedule: Q01DX005 (ip), vehicle: saline); 100 % of control (dose: 25.0 mg/kg/injection, schedule: Q01DX005 (ip), vehicle: Klucel (hydroxypropylcellulose) (HPC)); 100 % of control (dose: 25.0 mg/kg/injection, schedule: Q01DX005 (ip), vehicle: saline); 105 % of control under setting [1]; 103 % of control and 119 % of control (dose: 50.0 mg/kg/injection, schedule: Q01DX005 (ip), vehicle: saline). Besides, the T/C reads like this: under setting [2], 114 % of control; (dose: 100.0 mg/kg/injection, schedule: Q01DX005 (ip), vehicle: saline) 118 % of control and 124 % of control; (dose: 200.0 mg/kg/injection, schedule: Q01DX005 (ip), vehicle: saline) 101 % of control.

For `COC(=O)C/C(C(=O)OC)=C1\CCCC2=C1N1CCCC1C2(CC(=O)OC)C(=O)OC` (centres undefined), the T/C runs as follows: (dose: 12.5 mg/kg/injection, schedule: Q01DX001 (ip), vehicle: Klucel (hydroxypropylcellulose) (HPC)) 97 % of control; under setting [3], 98 % of control; under setting [4], 100 % of control.

For the compound `CCCCCCC1C(C#N)C(=O)NC(=O)C1C#N` (centres undefined), the T/C is, setting by setting: under setting [5], 96 % of control; under setting [6], 95 % of control; under setting [7], 93 % of control.

Consider `CCC1(C)C(=O)SC(=S)N1C` (centres undefined), for which the T/C was 101 % of control under setting [1], 97 % of control under setting [2] and 103 % of control under setting [8].

As to `COc1ccc(CC(C#N)c2ccc(Cl)cc2)cc1` (centres undefined), the T/C under setting [5] is 107 % of control; the T/C under setting [6] is 101 % of control; the T/C under setting [7] is 98 % of control; the T/C (dose: 400.0 mg/kg/injection, schedule: Q01DX009 (ip), vehicle: Klucel (hydroxypropylcellulose) (HPC)) is 98 % of control.

For the compound `NC(CSCc1ccccc1)C(=O)O` (centres undefined), the T/C is 100 % of control (dose: 50.0 mg/kg/injection, schedule: Q01DX091 (ip), vehicle: Klucel (hydroxypropylcellulose) (HPC)); 102 % of control (dose: 100.0 mg/kg/injection, schedule: Q01DX091 (ip), vehicle: Klucel (hydroxypropylcellulose) (HPC)); 91 % of control (dose: 200.0 mg/kg/injection, schedule: Q01DX091 (ip), vehicle: Klucel (hydroxypropylcellulose) (HPC)); 101 % of control (dose: 400.0 mg/kg/injection, schedule: Q01DX091 (ip), vehicle: Klucel (hydroxypropylcellulose) (HPC)).

In the case of `S=C=[N][Sn]([N]=C=S)([c]1ccccc1)[c]1ccccc1.c1ccc2nc(-c3ccc4ccccc4n3)ccc2c1`, the T/C was 97 % of control (dose: 1.87 mg/kg/injection, schedule: Q01DX005 (ip), vehicle: Klucel (hydroxypropylcellulose) (HPC)); 109 % of control and 110 % of control (dose: 3.75 mg/kg/injection, schedule: Q01DX005 (ip), vehicle: Klucel (hydroxypropylcellulose) (HPC)).

In the case of `Fc1ccc2[nH]c3c(c2c1)-c1ncncc1CC3`, the T/C is 101 % of control under setting [1], 100 % of control under setting [2] and 101 % of control under setting [8].

For `CSc1sc(C#N)c2nc3c(nc12)-c1cccc2cccc-3c12`, the T/C (dose: 50.0 mg/kg/injection, schedule: Q04DX002 (ip), vehicle: saline with Tween-80) was 88 % of control; the T/C (dose: 100.0 mg/kg/injection, schedule: Q04DX002 (ip), vehicle: saline with Tween-80) is 88 % of control; the T/C (dose: 200.0 mg/kg/injection, schedule: Q04DX002 (ip), vehicle: saline with Tween-80) is 91 % of control.

Consider `CCCN1CN2CCOC2C(C)(C)C1` (centres undefined), for which the T/C (dose: 40.0 mg/kg/injection, schedule: Q01DX009 (ip), vehicle: saline with Tween-80) is 112 % of control and the T/C (dose: 80.0 mg/kg/injection, schedule: Q01DX009 (ip), vehicle: saline with Tween-80) is 114 % of control.

As for `ClCCCSSCCCCl`, the T/C reads like this: (dose: 30.0 mg/kg/injection, schedule: Q01DX005 (ip), vehicle: saline with Tween-80) 107 % of control; (dose: 60.0 mg/kg/injection, schedule: Q01DX005 (ip), vehicle: saline with Tween-80) 110 % of control.

As for `O=c1oc(-c2ccccc2CCl)nc2ccccc12`, the T/C was 106 % of control under setting [9], 104 % of control under setting [10] and 101 % of control under setting [11].

On to `CC1(C)CC(=O)C(C(c2ccc3c(c2)OCO3)C2C(=O)CC(C)(C)CC2=O)C(=O)C1`, for which the T/C was 91 % of control under setting [1], 101 % of control under setting [2] and 104 % of control under setting [8].

Take `O=C(O)/C=N/NS(=O)(=O)c1cccc([N+](=O)[O-])c1`: the T/C reads like this: (dose: 25.0 mg/kg/injection, schedule: Q01DX009 (ip), vehicle: other) 118 % of control and 119 % of control and 122 % of control; (dose: 50.0 mg/kg/injection, schedule: Q01DX009 (ip), vehicle: other) 117 % of control; (dose: 200.0 mg/kg/injection, schedule: Q01DX009 (ip), vehicle: other) 160 % of control.

Consider `c1ccc(-c2nc3ccccc3nc2-c2ccc(-c3ccc(-c4nc5ccccc5nc4-c4ccccc4)cc3)cc2)cc1`, for which the T/C is 88 % of control and 96 % of control (dose: 6.25 mg/kg/injection, schedule: Q01DX009 (ip), vehicle: saline with Tween-80); 101 % of control and 90 % of control (dose: 12.5 mg/kg/injection, schedule: Q01DX009 (ip), vehicle: saline with Tween-80); 99 % of control and 120 % of control and 92 % of control (dose: 25.0 mg/kg/injection, schedule: Q01DX009 (ip), vehicle: saline with Tween-80); 114 % of control and 87 % of control under setting [9].

As to `Cc1cc(C)cc(OC(=O)/C=C/C(=O)Oc2cc(C)cc(C)c2)c1`, the T/C is, setting by setting: under setting [10], 90 % of control; under setting [11], 90 % of control; (dose: 400.0 mg/kg/injection, schedule: Q01DX009 (ip), vehicle: saline with Tween-80) 90 % of control.

With `Cc1ccc2c(CC(C)(C)[N+]3(C)CCCC3)ccc(C(C)C)cc1-2`, the T/C runs as follows: (dose: 100.0 mg/kg/injection, schedule: Q04DX002 (ip), vehicle: Klucel (hydroxypropylcellulose) (HPC)) 114 % of control; (dose: 200.0 mg/kg/injection, schedule: Q04DX002 (ip), vehicle: Klucel (hydroxypropylcellulose) (HPC)) 112 % of control; (dose: 400.0 mg/kg/injection, schedule: Q04DX002 (ip), vehicle: Klucel (hydroxypropylcellulose) (HPC)) 105 % of control.

For `NSc1ccccn1`, the T/C is 96 % of control under setting [3]; 96 % of control under setting [4]; 97 % of control (dose: 100.0 mg/kg/injection, schedule: Q01DX001 (ip), vehicle: Klucel (hydroxypropylcellulose) (HPC)); 102 % of control (dose: 100.0 mg/kg/injection, schedule: Q01DX001 (ip), vehicle: saline with Tween-80).

As to `Cn1c2cc3c(c(O)c2c(=O)c2cccnc21)C=CC(C)(C)O3`, the T/C under setting [1] was 104 % of control, the T/C under setting [2] is 91 % of control and the T/C under setting [8] was 93 % of control.

Regarding `CC(C)=NNC(N)=S`, the T/C (dose: 12.5 mg/kg/injection, schedule: Q04DX003 (ip), vehicle: Klucel (hydroxypropylcellulose) (HPC)) is 93 % of control and the T/C (dose: 25.0 mg/kg/injection, schedule: Q04DX003 (ip), vehicle: Klucel (hydroxypropylcellulose) (HPC)) was 100 % of control.

Take `[CH3][Pb]([CH3])([CH3])[Cl]`: the T/C reads like this: (dose: 0.75 mg/kg/injection, schedule: Q01DX009 (ip), vehicle: saline) 90 % of control and 92 % of control; (dose: 1.5 mg/kg/injection, schedule: Q01DX009 (ip), vehicle: saline) 90 % of control and 93 % of control and 97 % of control; (dose: 3.0 mg/kg/injection, schedule: Q01DX009 (ip), vehicle: saline) 94 % of control (2×) and 97 % of control; (dose: 6.0 mg/kg/injection, schedule: Q01DX009 (ip), vehicle: saline) 95 % of control.

As to `CN1CC[CH2][Sn]([Cl])([Cl])[CH2]CC1`, the T/C is 114 % of control (dose: 3.75 mg/kg/injection, schedule: Q01DX005 (ip), vehicle: saline with Tween-80) and 105 % of control (dose: 7.5 mg/kg/injection, schedule: Q01DX005 (ip), vehicle: saline with Tween-80).

In the case of `N#CNC1=NC(c2ccccc2)CC=C1` (centres undefined), the T/C runs as follows: under setting [9], 102 % of control; under setting [10], 113 % of control.

The record behind these values is PubChem BioAssay AID330 (DTP/NCI, 2004).
